{"source": "patent US12410152B2", "about": "“Oxazole and thioazole-type cullin ring ubiquitin ligase compounds and uses thereof” (Proxygen GmbH, priority 2019, dated 2025)", "key": {"KBM7 UBE2G1mut cells": {"test_system": "KBM7 UBE2G1mut cells", "experiment": "cells", "format": "cell-based", "protocol": "(§1) KBM7 cells with the specified genetic backgrounds were grown in IMDM supplemented with 10% FBS and 1% penicillin/streptomycin (pen/strep). AsPC1, HCT116, NCI-H446 and 293T cells were grown in DMEM 10% FBS and 1% pen/strep. MV4; 11, Jurkat and Be (2) C cells were grown in RPMI 10% FBS 1% pen/strep. KBM7, AsPC1 and HCT116 cells expressing Cas9 were generated using the plasmid Lenti_Cas9_Blasti (Addgene #52962). The lentiviral plasmid lentiGuide-Puro (Addgene #52963) was used to express sgRNAs against the genes UBE2M (in KBM7-Cas9, AsPC1-Cas9 and HCT116-Cas9 cells), UBE2G1 (in KBM7-Cas9 cells) and […] (in KBM7-Cas9 cells). The lentiviral plasmid lentiGuide-Puro-IRES-mCherry (modified from Addgene #52963) was used to express sgRNAs against CUL4A (in KBM7-Cas9 cells). The lentiviral plasmid pLenti-PGK-Hygro-DEST-UBE2M was generated by Gateway cloning (empty destination vector Addgene #19066), and used to generate UBE2M^resc KBM7 cells. […]\n(§2) Finally, a total of structurally similar analogs was tested to unravel structure-activity relationship of the identified molecules. To that end, their anti-cancer activity was assayed in WT cells, as well as KBM7 cells deficient in genes identified in the genome-wide CRISPR screens (UBE2M, CUL4B, UBE2G1). Moreover, the compounds were also tested in AsPC1 pancreatic cancer cells (WT or UBE2Mmut), MV4; 11 and Jurkat leukemia cells, Be (2) C neuroblastoma cells, and NCI-H446 lung cancer cells (Table 3 at the end of this document)\n(§3) KBM7^WT, mutant KBM7 clones (UBE2M^mut, UBE2M^resc, UBE2G1^mut CUL4A^mut, CUL4B^mut), and 3-day doxycycline pretreated KBM7^iCas9_sgDDB1 cells were seeded at a cell density of 50,000 cells/mL in 96-well plates with DMSO or drug, in triplicates. Drugs used: IC020772.1/IC020772.1X, IC021313.2/IC021313.2X, T6938051/T6938051X or THZ531. Cells were treated for 3 days, after which cell viability was assessed according to manufacturer's protocol (CellTiter Glo, Promega G7570). Survival curves and EC50 values were calculated by best-fit analysis of the log 10 drug concentration to fold change of drug-treated cells over DMSO-treated cells. All survival assays included technical triplicates per sample, per experiment."}, "KBM7 CUL4Bmut cells": {"test_system": "KBM7 CUL4Bmut cells", "experiment": "cells", "format": "cell-based", "protocol": "as §1, §2, §3"}, "KBM7-Cas9 cells": {"test_system": "KBM7-Cas9 cells", "experiment": "CRISPR/Cas9 resistance screens (genome-wide Brunello and CRL-focused sgRNA libraries)", "format": "cell-based, human", "conditions": "two weeks continuous drug treatment, start 4xEC50", "protocol": "293T cells seeded on 15 cm culture plates 16h before were transfected with 5 μg Brunello pooled library (Addgene #73178; 2-vector system), 2.5 μg pMD2.G (Addgene #12259), and 3.75 μg psPAX2 (Addgene #12260) using PolyFect (Qiagen) according to the manufacturer's protocol. Viral supernatant was harvested 72h after transfection and concentrated using Lenti—X-concentrator (Takara), according to the manufacturer's protocol. Concentrated viral supernatant was stored in aliquots at −80° C. and titrated to achieve a MOI of 0.2-0.3.\n250 million KBM7-Cas9 cells were transduced at MOI 0.23, yielding a calculated library representation of 668 cells/sgRNA (library representation=50 million cells). For transduction, 20 μL of concentrated viral supernatant was added to 5 million cells in 1.5 mL IMDM and 8 μg/mL polybrene in 6-well plates. Plates were centrifuged at 2000 rpm for 1 h at 30° C. in a benchtop centrifuge, 0.5 mL IMDM were added and then incubated at 37° C. overnight. The next day, transduced cells were pooled and diluted. Pools were selected with 1 μg/mL puromycin for 5 days. Three independent resistance screens were performed with the library using drugs at starting concentrations of 4×EC50. Selective drug treatment was performed on 50 million cells/drug at a seeding density of 500,000 cells/mL. Every 5 days, cells were pooled, counted and re-seeded to 50 million cells in 100 mL, applying fresh drug. […]\nDe-multiplexed raw reads were processed to count sgRNA spacer abundance using a custom script. The first 20 bp of the trimmed reads were collected and aligned against the Brunello spacer index using Bowtie2. Spacers were counted using cut-f 3|sort|uniq -c on the aligned SAM files. […] Log 2 fold changes of drug treatment vs DMSO were calculated from normalized counts, omitting spacers with no reads in the DMSO condition. The enrichment rank of each spacer sequence was expressed as a fraction of the total number of spacers, so that the most enriched spacer is assigned a perturbation strength of 1, in accordance with the STARS algorithm. […]"}}, "data": [{"smiles": "Cc1ccc(C(=O)N2CSCC2C(=O)N=c2[nH]cc(C)s2)o1", "note": "(stereo not drawn) [Compound T6938051]", "values": [{"measurement": "CC50", "setting": "KBM7 UBE2G1mut cells", "result": 3.47, "unit": "µM"}, {"measurement": "CC50", "setting": "KBM7 CUL4Bmut cells", "result": 110, "unit": "µM"}, {"measurement": "gene enrichment in drug-tolerant populations (genome-wide CRISPR screen)", "setting": "KBM7-Cas9 cells", "result": "striking enrichment in only four genes"}]}, {"smiles": "O=C(CSc1nnc2c(n1)[nH]c1ccccc12)Nc1ccc(Cl)cn1", "note": "[IC020772.1]", "values": [{"measurement": "CC50", "setting": "KBM7 UBE2G1mut cells", "result": 2, "unit": "µM"}, {"measurement": "CC50", "setting": "KBM7 CUL4Bmut cells", "result": 7.53, "unit": "µM"}, {"measurement": "gene enrichment in drug-tolerant populations (genome-wide CRISPR screen)", "setting": "KBM7-Cas9 cells", "result": "striking enrichment in only four genes"}]}, {"smiles": "O=C(CSc1nc2ccccc2[nH]1)Nc1ccc(Cl)cn1", "note": "[IC021313.2]", "values": [{"measurement": "CC50", "setting": "KBM7 UBE2G1mut cells", "result": 4.34, "unit": "µM"}, {"measurement": "CC50", "setting": "KBM7 CUL4Bmut cells", "result": 15.7, "unit": "µM"}, {"measurement": "gene enrichment in drug-tolerant populations (genome-wide CRISPR screen)", "setting": "KBM7-Cas9 cells", "result": "striking enrichment in only four genes"}]}]}
